In ChEMBL document CHEMBL1158407, “Synthesis of conjugated spermine derivatives with 7-nitrobenzoxadiazole (NBD), rhodamine and bodipy as new fluorescent probes for the polyamine transport system” (2009):
Active and inactive are the calls of the source. The calls are words filed in the database; no cut-off is given here.

Legend:
[1] = Cellular uptake in human NAMALWA cells assessed as fluorescence intensity at 1 uM after 2 hrs by FACS analysis relative to control; type: functional, cell-based; conditions: NAMALVA
[2] = Cellular uptake in F14512 co-cultured human NAMALWA cells assessed as decrease in fluorescence at 0.1 uM after 2 hrs by FACS analysis relative to control; type: functional, cell-based; design: scale not given: the % may be the effect or the level left; conditions: NAMALVA
CHO-MG = assay: Differential fluorescence intensity index, ratio of cellular uptake in Chinese hamster CHO cells expressing PTS to cellular uptake in PTS deficient […] CHO-MG cells at 1 uM after 2 hrs by microscopy and FACS analysis; type: functional, Cricetulus griseus

| SMILES | Flu intensity [1] | Activity [2] | fold change (FC) (CHO-MG) | fold change (FC) (CHO-MG; Cricetulus griseus) |
| --- | --- | --- | --- | --- |
| NCCCNCCCCNCCCNc1ccc(N)c2nonc12 | 0 | inactive |  |  |
| NCCCNCCCCNCCCNc1ccc([N+](=O)[O-])c2nonc12 | 65 | > 70% | 10 |  |
| O=[N+]([O-])c1ccc(NCCCNCCCCNCCCNc2ccc([N+](=O)[O-])c3nonc23)c2nonc12 | 627 | inactive |  | inactive |
| CCN(CC)c1ccc2c(-c3cccc(NC(=S)NCCCNCCCCNCCCN)c3C(=O)[O-])c3ccc(=[N+](CC)CC)cc-3oc2c1 | 15 | inactive |  |  |
| CN(C)S(=O)(=O)c1ccc(N2CCN(C(=O)CNCCCNCCCCNCCCN)CC2)c2nonc12 | 0 | inactive |  |  |
| CCC1=C(C)/C(=C(\c2ccc(N)cc2)c2c(C)c(CC)c(C)n2B(F)F)N=C1C | 3180 | 50% |  |  |
| CNc1ccc([N+](=O)[O-])c2nonc12 | 0.5 | inactive |  | inactive |
| CN(C)S(=O)(=O)c1ccc(NCCCNCCCCNCCCN)c2nonc12 | 0 | inactive |  |  |
| CN(CCCNCCCCNCCCN)c1ccc([N+](=O)[O-])c2nonc12 | 56 | > 70% | 10 |  |
| CCN(CC)c1ccc2c(-c3ccc(NC(=S)NCCCNCCCCNCCCN)cc3C(=O)[O-])c3ccc(=[N+](CC)CC)cc-3oc2c1 |  | inactive |  |  |
| CCC1=C(C)/C(=C(\c2ccc([N+](=O)[O-])cc2)c2c(C)c(CC)c(C)n2B(F)F)N=C1C | 1390 | 50% |  |  |
| CCC1=C(C)/C(=C(\c2ccc(NC(=O)CNCCCNCCCCNCCCN)cc2)c2c(C)c(CC)c(C)n2B(F)F)N=C1C | 839 | 50% |  | inactive |
| NCCCNCCCCNCCCNC(=S)Nc1ccc(-c2c3ccc(=O)cc-3oc3cc(O)ccc23)c(C(=O)O)c1 | 7.9 | inactive |  |  |
| O=[N+]([O-])c1ccc(N2CCNCC2)c2nonc12 | 1.1 | inactive |  |  |
| CCN(CC)c1ccc2c(-c3ccc(S(=O)(=O)[O-])cc3S(=O)(=O)NCCCNCCCCNCCCN)c3ccc(=[N+](CC)CC)cc-3oc2c1 | 1.3 | inactive |  |  |
| NCCCCNc1ccc([N+](=O)[O-])c2nonc12 |  |  |  | inactive |
| CCN(CC)c1ccc2c(-c3ccc(S(=O)(=O)NCCCNCCCCNCCCN)cc3S(=O)(=O)[O-])c3ccc(=[N+](CC)CC)cc-3oc2c1 | 2.9 | inactive |  |  |
| NCCCNCCCCNCCCNCC(=O)N1CCN(c2ccc([N+](=O)[O-])c3nonc23)CC1 | 2.9 | inactive |  |  |
| NCCCNCCCCN(CCCN)C(=S)Nc1ccc(-c2c3ccc(=O)cc-3oc3cc(O)ccc23)c(C(=O)O)c1 | 8.1 | inactive |  |  |
